Results: patent US7659277B2, “Ubiquitin ligase inhibitors and methods related thereto” (Proteologies, Ltd., priority 2003, dated 2010)

Columns and labels:
POSH = biological target: T1, POSH (Homo sapiens, UniProt Q7Z6J0); assay: Selectivity (% A in 1 μM), ubiquitin ligase activity of POSH; type: biochemical; conditions: read-out: Selectivity (% A* in 1 μM) POSH
T1 construct: GST-POSH lot NB81/p.118 3.6 mg/ml; fused on or other part: GST tag, used for detection with anti-GST XL665
T1 sequence (Q7Z6J0 1-269 limits assumed): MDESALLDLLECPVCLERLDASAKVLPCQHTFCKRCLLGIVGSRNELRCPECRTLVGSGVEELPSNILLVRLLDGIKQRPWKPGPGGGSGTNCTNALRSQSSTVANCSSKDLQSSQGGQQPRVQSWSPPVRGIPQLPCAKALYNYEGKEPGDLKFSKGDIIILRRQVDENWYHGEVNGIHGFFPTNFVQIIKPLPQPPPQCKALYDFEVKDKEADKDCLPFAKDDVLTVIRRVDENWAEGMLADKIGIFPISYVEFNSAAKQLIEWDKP
Experimental: Experimental Protocols: 1. HTS Screening Assay Procedure • Microplates 10109D to 10114D compounds at 1 mM. • (Controls in column 1). • All compounds were perchase from ChemBridge corporation: ChemBridge corporation 16981 Via Tazon, Suite G San Diego, Calif. 92127 a. Microplates Labeling • Put labels to 6 PS U-bottom clear microplate. • Put labels to 18 black microplates (triplicats). b. Microplates Preparation • Put 100 μl GST-POSH at 33 nM in wells of the clear PS U-bottom microplates (exept wells A1-D1). • Negative control: place 100 μl dH2O in wells A1-D1. • (Positive control: place 100 μl GST-POSH at 33 nM in wells E1-H1). • Put 8 μl enzymes solution ×4 to black microplates (column 1 to 11). c. Incubation of E3 with Compounds • Transfer 5 μl of compounds (at 1 mM) to the microplates containing 100 μl GST-POSH. • Add 5 μl of DMSO to controls column 1. • Incubation 30 minutes at RT. d. […] 2. […] Microplates Labeling • Put labels to 4 clear PP clear microplate (18.2 μM, 9.1 uM, 1.82 uM, 910 nM,). • Put labels to 5 clear PS U-bottom clear microplate 4.44 μM, 909, 444, 91 and 44 nM) • Put labels to 15 black microplates (triplicates). f. Original Microplate Dilutions • Put DMSO 40 μl to (18.2 μM, 1.82 uM plates) and 20 ul to (9.1 uM, 910 nM plates. • Mix by pipetation the original microplate (3× up and down 45 μl). • Transfer 10 μl of compounds from the original microplate (at 91 μM) to the next microplate (=18.2 μM) on splitting apparatus. • Mix by pipetation the 18.2 uM microplate (3× up and down 45 μl). • Transfer 20 μl of compounds from the 18.2 uM microplate to the next microplate (=9.1 μM) on splitting apparatus. • Mix by pipetation the 9.1 uM microplate (3× up and down 45 μl). • Transfer 10 μl of compounds from the 9.1 uM microplate to the next microplate (=1.82 μM) on splitting apparatus. • Mix by pipetation the 1.82 uM microplate (3× up and down 45 μl). • Transfer 20 μl of compounds from the 1.82 uM microplate to the next microplate (=910 nM) on splitting apparatus • Mix by pipetation. g. Microplates Preparation • Put 123 μl GST-POSH at 33 nM in wells of the 5 clear PS U-bottom clear microplates. • Positive control: place 123 μl GST-POSH at 33 nM in well A12-h12 13 μl DMSO. • Negative control: place 123 μl dH2O in well B1 and 13 μl DMSO. • Put 8 μl enzymes solution ×4 to 15 black microplates. • Controls: put 8 μl enzymes solution ×4 to wells A1 to F1. h. Incubation of POSH with Compounds • Take 7 μl of compounds at original plate (91 μM) and put into the 4.44 μM labeled microplate containing 123 μl GST-POSH, on splitting apparatus. • Mix by pipetation (3× up and down 115 μl), note time. • Take 7 μl of compounds at 18.2 μM and put into the 910 nM labeled microplate containing 123 μl GST-POSH, on splitting apparatus. • Mix by pipetation (3× up and down 115 μl), note time. • Take 7 μl of compounds at 9.1 μM and put into the 444 nM labeled microplate containing 123 μl GST-POSH, on splitting apparatus. • Mix by pipetation (3× up and down 115 μl), note time. • Take 7 μl of compounds at […] and put into the 91 nM labeled microplate containing 123 μl GST-POSH, on splitting apparatus. • Mix by pipetation (3× up and down 115 μl), note time. • Take 7 μl of compounds at 91.0 nM and put into the 44 nM labeled microplate containing 123 μl GST-POSH, on splitting apparatus. • Mix by pipetation (3× up and down 115 μl), note time. • Incubation 30 minutes at RT. i.

HIV-1 = assay: HIV maturation (budding) in virus-like particle assay, HIV-1 p24 antigen ELISA; type: cell-based; conditions: Human immunodeficiency virus 1, read-out: Budding (3 μM)
Description: Compounds were further assessed for effects on maturation of HIV particles in a virus-like particle assay.

Compound `O=c1nc(-c2ccc(Br)cc2)cc(-c2ccc([N+](=O)[O-])cc2)[nH]1` [Compound 84] has a remaining activity at 1 µM (POSH) of 67% and an activity at 3 µM (HIV-1) of 47%.
